Measurements taken from ChEMBL document CHEMBL1201862, “PubChem BioAssay data set” (2004).
Calls of active or inactive are those of the source.

What was measured:
[1] = control 3'UTR Renilla luciferase suppression, dose response, counter-screen for Shn3 inhibitor project, cell-based, Clone20-Shn3RL, cherry-picked (AID 624133); type: functional
[2] = HepG2 cell cytotoxicity, dose response, cytotoxicity control for Shn3 inhibitor project, CellTiter-Glo, cherry-picked (AID 624134); type: functional, cell-based
[3] = Shn3 3'UTR reporter inhibitors, dose response, cell-based, Clone20 osteoblasts, firefly luciferase, cherry-picked (AID 624132); type: functional;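 further: firefly luciferase luminescence from reporter carrying the Shn3 3'UTR in osteoblasts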
Caspase-6 = target: T1, Caspase-6 (Homo sapiens, UniProt P55212); test: human caspase-6 inhibitors, dose response, biochemical, VEID-R110 fluorescence, cherry-pick (AID 720632)
T1 sequence (P55212 whole entry): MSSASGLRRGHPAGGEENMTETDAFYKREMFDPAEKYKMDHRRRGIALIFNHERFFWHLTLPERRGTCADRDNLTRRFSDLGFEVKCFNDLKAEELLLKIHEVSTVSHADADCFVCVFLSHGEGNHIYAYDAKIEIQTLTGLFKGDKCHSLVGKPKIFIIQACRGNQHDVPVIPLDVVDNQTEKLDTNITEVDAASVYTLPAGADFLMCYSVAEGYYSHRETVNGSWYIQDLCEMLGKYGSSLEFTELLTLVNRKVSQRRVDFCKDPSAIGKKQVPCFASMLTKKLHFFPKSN

[4] = miR-122 activators in hepatoma reporter cells, dose response, cell-based, Huh7 psiCHECK-miR122, Renilla luciferase, cherry-picked (AID 651956); type: functional;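 further: huh7 hepatoma cells stably carrying a psiCHECK-2 miR-122 sensor plasmid; renilla luciferase signal reporting endogenous miR-122 activity after 48 h compound exposure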
[5] = HEK293T cytotoxicity, dose response, cytotoxicity control for miR-122 modulator project, cell-based, activator set, cherry-pick (AID 720690); type: functional;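 further: HEK293T human cells scored for general mammalian cytotoxicity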
Cytochrome P450 3A4 = Cytochrome P450 3A4 (Homo sapiens, UniProt P08684); details: Potency;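 further: confirmatory qHTS run detecting inhibitors and substrates of CYP3A4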
Chain of Cytochrome P450 3A4 (P08684 whole entry): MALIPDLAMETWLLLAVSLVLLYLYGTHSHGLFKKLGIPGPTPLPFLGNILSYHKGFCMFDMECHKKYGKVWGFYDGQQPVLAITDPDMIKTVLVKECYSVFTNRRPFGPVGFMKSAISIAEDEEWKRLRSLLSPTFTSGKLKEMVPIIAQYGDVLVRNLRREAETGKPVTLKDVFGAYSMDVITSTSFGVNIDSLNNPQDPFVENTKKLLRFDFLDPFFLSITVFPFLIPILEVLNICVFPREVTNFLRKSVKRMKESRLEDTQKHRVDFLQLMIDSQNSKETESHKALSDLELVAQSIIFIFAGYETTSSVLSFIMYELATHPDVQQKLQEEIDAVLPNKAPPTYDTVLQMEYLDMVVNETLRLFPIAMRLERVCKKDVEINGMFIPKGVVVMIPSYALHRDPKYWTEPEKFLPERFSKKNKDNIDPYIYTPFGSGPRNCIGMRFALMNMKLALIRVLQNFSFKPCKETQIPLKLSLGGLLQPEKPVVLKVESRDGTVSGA

[6] = P. falciparum Dd2 growth inhibitors, dose response, SYBR Green, cherry-picked samples (AID 1159567); type: functional, cell-based
[7] = HepG2 cell cytotoxicity, dose response, cytotoxicity control, cherry-picked samples (AID 1159577); type: functional, cell-based
[8] = HEK293T cytotoxicity, dose response, cytotoxicity control for miR-122 modulator project, cell-based, inhibitor set, cherry-pick, set 2 (AID 720697); type: functional
INS1 = test: beta cell apoptosis inhibitors, cytokine rescue, dose response, luminescence, retest (AID 449756); type: functional, cell-based; details: Rattus norvegicus;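 further: cell death triggered by IL-1 beta plus TNF-alpha plus IFN-gamma mixture; protective hits raise ATP signal compared with cytokine alone wells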
[9] = MC4R antagonists, dose response, counter-screen for LGR2 antagonist project, cell-based, plate reader, cherry pick (AID 743444); type: functional;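 further: transfected HEK 293 cells stimulated with alpha-MSH peptide; potency of inhibitors of the alpha-MSH evoked signal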
[10] = LGR2 antagonists, dose response, cell-based, HEK293, CRE-luciferase reporter, cherry pick, set 2 (AID 743343); type: functional;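 further: transfected cells were stimulated with diluted bursicon conditioned medium after compound addition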
[11] = HepG2 cell cytotoxicity, dose response, cytotoxicity control, plate reader, cherry-pick, antagonist series (AID 743416); type: functional, cell-based

Question: With `CC(C)CC(N)c1csc(NC(=O)c2cc(C(C)(C)C)nn2Cc2ccccc2)n1` (centres undefined) as the molecule, how does the AC50 [1] read?
Answer: 20.8 µM (active)

Question: What about the AC50 [2] of the same molecule?
Answer: 8.75 µM (active)

Question: What about the AC50 [3] of the same molecule?
Answer: 4.85 µM (active)

Question: For `O=C(O)c1cc(S(=O)(=O)Nc2ccc3c[nH]nc3c2)ccc1Br`, which AC50 (Caspase-6) is on record?
Answer: 14.5 µM (active)

Question: What does the source list for `C[C@@H]1CN([C@H](C)CO)S(=O)(=O)c2ccc(C#Cc3ccccc3F)cc2O[C@@H]1CN(C)C(=O)Cc1ccncc1`?
Answer: AC50 [4]: 5.11 µM (active); AC50 [5]: 32.4 µM (active)

Question: For `CC(=O)N1[C@H](C)C=C[C@]1(Cc1ccccc1)C(=O)NCCc1c[nH]c2ccccc12`, which AC50 (Cytochrome P450 3A4) is on record?
Answer: 1.58 µM (inconclusive)

Question: For `COc1ccc(C#Cc2ccc([C@H]3[C@H](CO)N4CCCCN(Cc5ccccc5F)C[C@@H]34)cc2)cc1`, which AC50 [6] is on record?
Answer: 0.781 µM (active)

Question: What about the AC50 [7] of the same molecule?
Answer: 10.9 µM (active)

Question: Which results are given for `C[C@H]1CN([C@@H](C)CO)S(=O)(=O)c2ccc(C3=CCCCC3)cc2O[C@@H]1CN(C)C(=O)Cc1ccncc1`?
Answer: AC50 [6]: 3.13 µM (active); AC50 [7]: > 39 µM (inactive)

Question: For `C=C1C([C@@]2(C)C(OC(C)=O)CC(=O)O[C@@](C)(COC(C)=O)C2CC(=O)OC)C(OC=O)C(OC(=O)C(O)C(C)CC)[C@]2(C)C(c3ccoc3)CC(=O)C12O` (some centres undefined), which AC50 (Cytochrome P450 3A4) is on record?
Answer: 10 µM (inconclusive)

Question: For `Clc1ccc(C2[C@H]3CN(CC4CCCCC4)[C@H](c4ccccc4)C34CC2(c2ccccc2)C4)cn1` (some centres undefined), which AC50 (Cytochrome P450 3A4) is on record?
Answer: 15.8 µM (inconclusive)

Question: With `COc1ccc(NC(=O)N2CCCCN3[C@@H](CO)[C@H](c4ccc(C#CCC(C)C)cc4)[C@@H]3C2)cc1` as the molecule, how does the AC50 [6] read?
Answer: 0.491 µM (active)

Question: What about the AC50 [8] of the same molecule?
Answer: 11.7 µM (active)

Question: And the AC50 [4]?
Answer: 3.18 µM (active)

Question: What about the AC50 [7] of the same molecule?
Answer: 8.52 µM (active)

Question: What about the AC50 [5] of the same molecule?
Answer: 11.6 µM (active)

Question: With `Cc1ccccc1Nc1nc(N)nc(COC(=O)c2ccc([N+](=O)[O-])o2)n1` as the molecule, how does the AC50 (Caspase-6) read?
Answer: 47 µM (active)

Question: Which AC50 [1] does the source give for `COc1cc(CC(=O)Nc2nc(-c3ccc(F)c(F)c3)cs2)cc(OC)c1OC` here?
Answer: 19.2 µM (active)

Question: What about the AC50 (INS1) of the same molecule?
Answer: 6.89 µM (active)

Question: And the AC50 [2]?
Answer: 6.77 µM (active)

Question: What about the AC50 [3] of the same molecule?
Answer: 3.92 µM (active)

Question: What does the source list for `C[C@@H]1CCCCO[C@@H](CN(C)Cc2ccc3c(c2)OCO3)[C@H](C)CN([C@H](C)CO)C(=O)c2cc(NC(=O)Nc3ccc(C(F)(F)F)cc3)ccc2O1`?
Answer: AC50 [8]: 8.08 µM (active); AC50 [4]: 5.55 µM (active); AC50 [5]: 9.09 µM (active)

Question: Which AC50 [9] does the source give for `CC(=O)N1CCCC(c2cc(C(=O)Nc3ccccc3)no2)C1` (centres undefined) here?
Answer: 1.98 µM (active)

Question: What about the AC50 [10] of the same molecule?
Answer: 2.13 µM (active)

Question: And the AC50 [11]?
Answer: > 52 µM (inactive)
